Test system: uPA:uPAR interaction
Assay: not given
Conditions: cited from earlier work
In the case of `Cc1ccc(C(=O)Nc2ccc(S(=O)(=O)O)c3cc(S(=O)(=O)O)cc(S(=O)(=O)O)c23)cc1NC(=O)c1cccc(NC(=O)Nc2cccc(C(=O)Nc3cc(C(=O)Nc4ccc(S(=O)(=O)O)c5cc(S(=O)(=O)O)cc(S(=O)(=O)O)c45)ccc3C)c2)c1` [suramin], the “inhibition of the uPA:uPAR interaction” value is listed as “inhibit the uPA:uPAR interaction”.

Target: T1, uPAR (Homo sapiens, UniProt Q03405)
T1 construct: these cells express high levels of unoccupied uPA receptors; endogenous in cells; host or cells: DU-145 human prostate cancer cells (intact cells, harvested with trypsin/EDTA)
T1 sequence (Q03405 23-335): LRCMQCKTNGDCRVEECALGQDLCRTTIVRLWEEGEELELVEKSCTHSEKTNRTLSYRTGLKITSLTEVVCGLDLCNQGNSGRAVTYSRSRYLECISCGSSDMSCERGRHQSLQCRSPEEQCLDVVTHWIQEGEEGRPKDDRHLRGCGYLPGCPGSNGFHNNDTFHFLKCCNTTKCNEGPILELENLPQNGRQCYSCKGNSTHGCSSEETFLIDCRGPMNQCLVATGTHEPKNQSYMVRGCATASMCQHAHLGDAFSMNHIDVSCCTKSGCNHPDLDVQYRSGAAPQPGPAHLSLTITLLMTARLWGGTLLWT
Assay: cell-based, competition radioligand binding assay (specific binding of c-[125I-Tyr24]-ATFp to DU-145 cells)
Conditions: radioligand c-[125I-Tyr24]-ATFp 3 nM (1.5 Kd), 4° C. for 90 min, duplicate tubes, 2-3 independent experiments
Protocol: The following assay procedure, which is a cell-based, competition radioligand binding assay, was carried out to determine the activity of the foregoing compounds as uPAR antagonists.
Radioligand Preparation. The minimal receptor-binding sequence of uPA was determined by Apella et al., J. Biol. Chem. 262:4437-4440 (1987), utilizing non-radioactive peptides as competition for a larger uPA radioligand. Our assay was developed and characterized using an iodinated version of the minimal receptor binding sequence of human uPA (residues 12-32, Ala^19). The 21-amino acid peptide (cyclized), referred to herein as "c-ATFp", was synthesized and iodinated as follows: 10 ug of c-ATFp was iodinated with 1 mCi Na^125 I, using the Chloramine-T method (Iodo-Beads, Pierce Chemical Co.); iodinated peptide was separated from unincorporated iodine with Sep-Pak C18 cartridges (Millipore), and the C18-bound peptide was eluted with acetonitrile. This procedure routinely yielded a radioiodinated c-ATFp (c-[^125 I-Tyr^24 ]-ATFp) with specific activity of 105 Ci/mmol: [drawing 101]
Determination of Radioligand Binding. DU-145, a human prostate cancer cell line, was selected for radioligand binding assays because these cells express high levels of unoccupied uPA receptors (approximately 500,000 receptors/cell). Subconfluent, 2 day cultures of DU-145 cells were prepared for radioligand binding assays by harvesting monolayers with trypsin/EDTA. The cells were washed one time with serum-free Dulbecco's Modified Eagle Medium (DMEM), and suspended at a cell density of 250,000 cells/ml in ice-cold DME containing 0.1% bovine serum albumin. Test compounds were solubilized in DMSO at 2 mg/ml and subsequently diluted in phosphate buffered saline to prepare stock concentrations of 200 ug/ml, 20 ug/ml, 2 ug/ml, 0.2 ug/ml, and 0.02 ug/ml. The binding reactions were initiated by addition of 1.0 ml cell suspension to microcentrifuge tubes containing 10 ul of: the indicated test compound solutions, or appropriately diluted DMSO controls, and c-[^25 ]-Tyr^24 ]-ATFp, such that the final concentration of radioligand was 3 nM (1.5 Kd). To control for specific binding, parallel reaction tubes were prepared containing 1,000-fold excess unlabeled c-ATFp. Reaction tubes were incubated with rocking at 4° C. for 90 min. Binding was terminated by 4° C. centrifugation at 800× g for 1 min in a refrigerated microcentrifuge. Unbound radioligand was removed by aspirating the reaction medium, adding fresh, ice-cold DMEM, 0.1% bovine serum albumin to the pelleted cells, and then quickly re-centrifuging and aspirating the wash from the cell pellet. The washing steps were completed in 2-4 minutes by this method, depending on the number of tubes in each experiment. Tips of microcentrifuge tubes containing the cell pellets were snipped and transferred to counting tubes. Radioactivity bound to the cells was determined in a gamma counter.
Specific binding of the radioligand was calculated as the difference between the amount of c-[^125 I-Tyr^24 ]-ATFp bound in the absence (total binding) and presence (non-specific binding) of the unlabeled c-ATFp. The efficacy of test compounds for inhibiting specific binding of c-[^125 I-Tyr^24 ]-ATFp was determined by plotting a graph of specific binding (y-axis) as a function of test compound concentration (x-axis). The concentration of test compound required to inhibit 50% of the specific binding (lC50) was determined from the plot. The IC50 may be directly converted mathematically to Ki, which is a measure of the receptor binding affinity of the compounds under the defined assay conditions. Test compounds were evaluated in duplicate tubes, in 2-3 independent binding experiments.
In the case of `O=C(Cc1c[nH]c2ccccc12)Nc1ccc(-c2ccc(C(=O)N[C@@H](Cc3ccccc3)C(=O)O)cc2)cc1` [Example 8-A], the IC50 is reported as 0.02 µM. Compound `O=C(N[C@@H](Cc1c[nH]c2ccccc12)C(=O)Nc1ccc(-c2ccc(C(=O)N[C@@H](Cc3ccccc3)C(=O)O)cc2)cc1)OCC1c2ccccc2-c2ccccc21` [Example 8-D] has an IC50 of 0.19 µM. With `O=C(N[C@@H](Cc1c[nH]c2ccccc12)C(=O)Nc1ccc(-c2ccc(C(=O)N[C@@H](Cc3c[nH]c4ccccc34)C(=O)O)cc2)cc1)OCC1c2ccccc2-c2ccccc21` [Example 8-E] the IC50 was 0.31 µM. Work on `CC(=O)N[C@@H](Cc1c[nH]c2ccccc12)C(=O)Nc1ccc(-c2ccc(C(=O)NCCC(=O)O)cc2)cc1` [Example 8-F] yielded an IC50 of 0.0009 µM. `CC(=O)N[C@H](Cc1c[nH]c2ccccc12)C(=O)Nc1ccc(-c2ccc(C(=O)NCCC(=O)O)cc2)cc1` [Example 8-G] showed an IC50 of 0.018 µM. `CC(=O)N[C@@H](Cc1c[nH]c2ccccc12)C(=O)Nc1ccc(-c2ccc(C(=O)N[C@@H](Cc3ccccc3)C(=O)O)cc2)cc1` [Example 8-J] gave an IC50 of 0.0018 µM. In the case of `CC(=O)N[C@H](Cc1c[nH]c2ccccc12)C(=O)Nc1ccc(-c2ccc(C(=O)N[C@@H](Cc3ccccc3)C(=O)O)cc2)cc1` [Example 8-K], the IC50 is reported as 0.004 µM. Compound `CC(=O)N[C@@H](Cc1c[nH]c2ccccc12)C(=O)Nc1ccc(-c2ccc(C(=O)N[C@H](Cc3ccccc3)C(=O)O)cc2)cc1` [Example 8-L] has an IC50 of 0.008 µM. In the case of `CC(=O)N[C@@H](Cc1c[nH]c2ccccc12)C(=O)Nc1ccc(C(=O)N[C@@H](Cc2ccccc2)C(=O)O)cc1` [Example 8-M], the IC50 is reported as 0.028 µM. For `CC(=O)N[C@@H](Cc1c[nH]c2ccccc12)C(=O)Nc1cccc(-c2ccc(C(=O)N[C@@H](Cc3ccccc3)C(=O)O)cc2)c1` [Example 8-N], the IC50 was 0.0008 µM. `CC(=O)N[C@@H](Cc1c[nH]c2ccccc12)C(=O)Nc1ccc(-c2cccc(C(=O)N[C@@H](Cc3ccccc3)C(=O)O)c2)cc1` [Example 8-O] showed an IC50 of 0.167 µM. For `CC(=O)N[C@@H](Cc1c[nH]c2ccccc12)C(=O)NCc1ccccc1-c1ccc(C(=O)N[C@@H](Cc2ccccc2)C(=O)O)cc1` [Example 8-P], the IC50 was 0.07 µM. With `CC(=O)N[C@@H](Cc1ccccc1)C(=O)Nc1ccc(-c2ccc(C(=O)N[C@@H](Cc3ccccc3)C(=O)O)cc2)cc1` [Example 8-Q] the IC50 was 0.018 µM. Compound `CC(=O)N[C@@H](Cc1c[nH]c2ccccc12)C(=O)Nc1ccc(-c2ccc(C(=O)O)cc2)cc1` [Example 8-R] has an IC50 of 1.5 µM. With `O=C(O)C[C@H](NC(=O)c1ccc(-c2ccc(NC(=O)[C@H](Cc3c[nH]c4ccccc34)NC(=O)OCC3c4ccccc4-c4ccccc43)cc2)cc1)C(=O)O` [Example 9-C] the IC50 was 0.3 µM. With `CC(=O)N[C@@H](Cc1c[nH]c2ccccc12)C(=O)Nc1ccc(-c2ccc(C(=O)N[C@@H](CC(=O)O)C(=O)O)cc2)cc1` [Example 9-H] the IC50 was 0.06 µM. For `CC(=O)N[C@H](Cc1c[nH]c2ccccc12)C(=O)Nc1ccc(-c2ccc(C(=O)N[C@@H](CC(=O)O)C(=O)O)cc2)cc1` [Example 9-I], the IC50 was 0.017 µM. `CC(=O)N[C@@H](CCC(N)=O)C(=O)Nc1ccc(-c2ccc(C(=O)N[C@@H](Cc3ccccc3)C(=O)O)cc2)cc1` [Example 9-S] gave an IC50 of 0.006 µM. For `CC(=O)N[C@@H](Cc1c[nH]c2ccccc12)C(=O)Nc1ccc(-c2ccc(C(=O)N[C@@H](Cc3ccc(O)cc3)C(=O)O)cc2)cc1` [Example 9-T], the IC50 was 0.003 µM. For `CC(=O)N[C@@H](Cc1c[nH]c2ccccc12)C(=O)Nc1ccc(-c2ccc(C(=O)N[C@@H](Cc3ccccc3)C(N)=O)cc2)cc1` [Example 10-U], the IC50 was 0.044 µM. For `CC(=O)N[C@@H](Cc1c[nH]c2ccccc12)C(=O)Nc1ccc(-c2ccc(C(=O)N[C@@H](CC(=O)O)C(N)=O)cc2)cc1` [Example 10-V], the IC50 was 0.0013 µM. `CC(=O)N[C@@H](Cc1c[nH]c2ccccc12)C(=O)Nc1ccc(-c2ccc(C(=O)NCCc3ccccc3)cc2)cc1` [Example 11-W] showed an IC50 of 0.355 µM. Work on `CC(=O)N[C@@H](Cc1c[nH]c2ccccc12)C(=O)Nc1ccc(-c2ccc(C(N)=O)cc2)cc1` [Example 12-Y] yielded an IC50 of 0.091 µM.

Target: uPAR
Assay: not given
Conditions: critical domain alone (uPA,12-32); read-out: affinity; cited from earlier work
For “uPA,12-32: The critical domain alone (uPA,12-32); residues 12-32 of the EGF-like domain of uPA (DCLNGGTCVSNKYFSNIHWCN; UniProt P00749 32-52, looked up, fragment)”, the Kd is given as 0.04 µM.

Same assay, conditions: less than intact ATF; cited from earlier work
For “uPA,12-32: The critical domain alone (uPA,12-32); residues 12-32 of the EGF-like domain of uPA (DCLNGGTCVSNKYFSNIHWCN; UniProt P00749 32-52, looked up, fragment)”, the “affinity relative to intact ATF (fold less)” value is listed as “about 100 fold”.

Reference: US6228985A, “Derivatives of aminobenzoic and aminobiphenylcarboxylic acids useful as anti-cancer agents” (Schering Corporation, priority 1998, dated 2001)
